How the values were obtained:
human skin [1] = experiment: Second human skin patch test; assay type: in vivo
Source text: (§1) Based on these studies PDO is not expected to be a skin irritant or sensitizer in humans.

human skin [2] = experiment: Human skin patch test (first); assay type: in vivo; conditions: approximately 100 subjects; 5, 25, and 50% PDO
Source text: as §1

Viscosity of formulation = assay type: physicochemical; conditions: cosmetic emulsion of Example 1 with other glycol instead of Bio-PDO

Row | Structure (SMILES) | clinically significant dermal irritation or sensitization reactions (human skin [1]; 25, 50, and 75% PDO at pH 7, or 75% PDO at pH 4 and 9) | skin reactions indicative of irritation or sensitization (human skin [2]) | viscosity of the cosmetic emulsion with the comparison glycol (Viscosity of formulation) [cps] | patch test irritation and cumulative irritation for human skin (human skin [1]; 25, 50, and 75% (pH 7))
1 | OCCCO [Bio-PDO, 1,3-propanediol] | did not produce any clinically significant dermal irritation or sensitization reactions | did not cause any skin reactions indicative of irritation or sensitization |  | 
2 | CC(CO)CO [2-methyl-1,3-propanediol] |  |  | 9600 | 
3 | CC(O)CO (stereo not drawn) [propylene glycol] |  |  | 12600 | patch test irritants and cumulative irritants
4 | CC(O)CCO (stereo not drawn) [1,3-butylene glycol] |  |  | 6000 | 

— US20130071535A1, “FOOD AND FLAVORANT COMPOSITIONS COMPRISING RENEWABLY-BASED, BIODEGRADABLE 1,3-PROPANEDIOL” (DuPont Tate & Lyle Bio Products Company, LLC, priority 2006, published 2013)
